{"source": "patent US7582667B2", "about": "“Dihydrospiro[dibenzo[a,d][7]annulene-5,4′-imidazol] compounds for the inhibition of beta-secretase” (Wyeth, priority 2006, dated 2009)", "key": {"[1]": {"molecular_target": "human BACE1 (Homo sapiens, UniProt P56817)", "sequence (P56817 46-501)": "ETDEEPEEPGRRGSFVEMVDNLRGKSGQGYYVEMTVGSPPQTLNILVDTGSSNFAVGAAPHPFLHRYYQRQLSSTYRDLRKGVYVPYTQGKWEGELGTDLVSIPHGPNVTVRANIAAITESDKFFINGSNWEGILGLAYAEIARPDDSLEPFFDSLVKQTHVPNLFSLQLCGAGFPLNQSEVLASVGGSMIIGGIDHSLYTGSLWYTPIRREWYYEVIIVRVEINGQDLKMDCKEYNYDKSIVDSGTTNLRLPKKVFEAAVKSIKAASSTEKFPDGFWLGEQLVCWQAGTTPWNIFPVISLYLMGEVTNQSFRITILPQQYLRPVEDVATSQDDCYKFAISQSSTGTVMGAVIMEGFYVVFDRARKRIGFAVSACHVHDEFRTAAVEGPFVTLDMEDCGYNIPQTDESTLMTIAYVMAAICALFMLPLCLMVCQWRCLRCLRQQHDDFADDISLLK", "test": "Fluorescent kinetic assay, BACE-1 binding affinity (peptide substrate WABC-6 cleavage)", "format": "biochemical", "conditions": "10 nM enzyme, 25 μM substrate WABC-6, Na-Acetate pH 4.5, room temperature", "experimental": "Evaluation of BACE-1 Binding Affinity of Test Compounds\nFluorescent Kinetic Assay\nFinal Assay Conditions: 10 nM human BACE1 (or 10 nM Murine BACE1), 25 μM substrate (WABC-6, MW 1549.6, from AnaSpec), Buffer: 50 mM Na-Acetate, pH 4.5, 0.05% CHAPS, 25% PBS, room temperature. Na-Acetate was from Aldrich, Cat. #24, 124-5, CHAPS was from Research Organics, Cat. #1304C 1X, PBS was from Mediatech (Cellgro), Cat#21-031-CV, peptide substrate Abz[…]pa was from AnaSpec, Peptide Name: WABC-6 Determination of stock substrate (Abz[…]pa) concentration: ˜25 mM stock solution is made in DMSO using the peptide weight and MW, and diluted to ˜25 μM (1:1000) in 1×PBS. Concentration is determined by absorbance at 354 nm using an extinction coefficient ε of 18172 M^−1cm^−1, the concentration of stock substrate is corrected, and the substrate stock stored in small aliquots in −80° C. […] Determination of Stock Enzyme Concentration: the stock concentration of each enzyme is determined by absorbance at 280 nm using ε of 64150 M^−1cm^−1 for hBACE1 and MuBACE1 in 6 M Guanidinium Hydrochloride (from Research Organics, Cat. # 5134G-2), pH ˜6. The extinction coefficient ε^280 nm for each enzyme was calculated based on known amino acid composition and published extinction coefficients for Trp ([…]) and Tyr ([…]) residues (Anal. Biochem. 182, 319-326). Dilution and mixing steps: total reaction volume: 100 μL\n2× inhibitor dilutions in buffer A (66.7 mM Na-Acetate, pH 4.5, 0.0667% CHAPS) were prepared,\n4× enzyme dilution in buffer A (66.7 mM Na-Acetate, pH 4.5, 0.0667% CHAPS) were prepared,\n100 μM substrate dilution in 1× PBS was prepared, and\n50 μL 2× Inhibitor, 25 μL 100 μM substrate are added to each well of 96-well plate (from DYNEX Technologies, VWR #: 11311-046), immediately followed by 25 μL 4× enzyme (added to the inhibitor and substrate mix), and the fluorescence readings are initiated.\nFluorescence Readings: Readings at λex 320 nm and λem 420 nm are taken every 40 sec for 30 min at room temperature and the linear slope for substrate cleavage rate (vi) determined.\nCalculation of % Inhibition: % Inhibition=100*(1−vi/v0) • vi: substrate cleavage rate in the presence of inhibitor • v0: substrate cleavage rate in the absence of inhibitor • IC50 Determination: % Inhibition=((B*IC50^n)+(100*I0^n))/(IC50^n+I0^n) (Model #39 from LSW Tool Bar in Excel where B is the % inhibition from the enzyme control, which should be close to 0.) % Inhibition is plotted vs. Inhibitor Concentration (I0) and the data fit to the above equation to obtain IC50 value and Hill number (n) for each compound."}}}
{"compound": "COc1cccc(-c2ccc3c(c2)C2(N=C(N)N(C)C2=O)c2ccc(OC)c(C)c2CC3)c1", "note": "(stereo not shown) [Example 9, 2′-amino-2-methoxy-7-(3-methoxyphenyl)-1,1′-dimethyl-10,11-dihydrospiro[dibenzo[a,d][7]annulene-5,4′-imidazol]-5′(1′H)-one]", "values": [{"measurement": "IC50", "setting": "[1]", "result": 0.138, "unit": "µM"}]}
{"compound": "COc1ccc2c(c1C)CCc1ccc(-c3cccnc3F)cc1C21N=C(N)N(C)C1=O", "note": "(stereo not shown) [Example 4, 2′-amino-7-(2-fluoropyridin-3-yl)-2-methoxy-1,1′-dimethyl-10,11-dihydrospiro[dibenzo[a,d][7]annulene-5,4′-imidazol]-5′(1′H)-one]", "values": [{"measurement": "IC50", "setting": "[1]", "result": 0.063, "unit": "µM"}, {"measurement": "melting point", "result": "153 to 155", "unit": "°C"}]}
{"compound": "COc1ccc2c(c1C)CCc1ccc(-c3cccnc3)cc1C21N=C(N)N(C)C1=O", "note": "(stereo not shown) [Example 3, 2′-Amino-2-methoxy-1,1′-dimethyl-7-pyridin-3-yl-10,11-dihydrospiro[dibenzo[a,d][7]annulene-5,4′-imidazol]-5′(1′H)-one]", "values": [{"measurement": "IC50", "setting": "[1]", "result": 0.077, "unit": "µM"}, {"measurement": "melting point", "result": "235 to 239", "unit": "°C"}]}
{"compound": "2′-amino-7-(6-fluoropyridin-3-yl)-2-methoxy-1,1′-dimethyl-10,11-dihydrospiro[dibenzo[a,d][7]annulene-5,4′-imidazol]-5′(1′H)-one [Example 6]", "values": [{"measurement": "IC50", "setting": "[1]", "result": 0.108, "unit": "µM"}]}
{"compound": "COc1ccc2c(c1C)CCc1ccc(-c3cc(F)ccc3F)cc1C21N=C(N)N(C)C1=O", "note": "(stereo not shown) [Example 7, 2′-amino-7-(2,5-difluorophenyl)-2-methoxy-1,1′-dimethyl-10,11-dihydrospiro[dibenzo[a,d][7]annulene-5,4′-imidazol]-5′(1′H)-one]", "values": [{"measurement": "IC50", "setting": "[1]", "result": 0.25, "unit": "µM"}, {"measurement": "melting point", "result": "155 to 195", "unit": "°C"}]}
{"compound": "COc1ccc2c(c1)CCc1ccc(-c3ccccc3)cc1C21N=C(N)N(C)C1=O", "note": "(stereo not shown) [Example 12, 2′-Amino-2-methoxy-1′-methyl-7-phenyl-10,11-dihydrospiro[dibenzo[a,d][7]annulene-5,4′-imidazol]-5′(1′H)-one]", "values": [{"measurement": "IC50", "setting": "[1]", "result": 0.18, "unit": "µM"}]}
{"compound": "COc1ccc2c(c1C)CCc1ccc(-c3cc(F)cc(F)c3)cc1C21N=C(N)N(C)C1=O", "note": "(stereo not shown) [Example 10, 2′-amino-7-(3,5-difluorophenyl)-2-methoxy-1,1′-dimethyl-10,11-dihydrospiro[dibenzo[a,d][7]annulene-5,4′-imidazol]-5′(1′H)-one]", "values": [{"measurement": "IC50", "setting": "[1]", "result": 0.376, "unit": "µM"}, {"measurement": "melting point", "result": "245 to 249", "unit": "°C"}]}
{"compound": "COc1ccc2c(c1C)CCc1ccc(-c3cccc(C#N)c3)cc1C21N=C(N)N(C)C1=O", "note": "(stereo not shown) [Example 8, 3-(2′-amino-8-methoxy-1′,9-dimethyl-5′-oxo-1′,5′, 10,11-tetrahydrospiro[dibenzo[a,d][7]annulene-5,4′-imidazol]-3-yl)benzonitrile]", "values": [{"measurement": "IC50", "setting": "[1]", "result": 0.235, "unit": "µM"}, {"measurement": "melting point", "result": "269 to 280", "unit": "°C"}]}
